Like-named read-outs stand apart in the source and are kept apart here. Square brackets hold non-standard residues; d marks the D form. Peptide text beside a SMILES is read from it. * marks the point of attachment. NHOctadecyl = CCCCCCCCCCCCCCCCCCN*; Cya = N[C@@H](CS(=O)(=O)O)C(=O)O; NMeF = CN[C@@H](Cc1ccccc1)C(=O)O; hPhe = N[C@@H](CCc1ccccc1)C(=O)O; Cha = N[C@@H](CC1CCCCC1)C(=O)O; NMeD = CN[C@@H](CC(=O)O)C(=O)O; Phg = N[C@H](C(=O)O)c1ccccc1; X8 = CCCCCCCCCCCCCCCCCCO*; Piperidide = C1CCN(*)CC1; X7 = O=C(CO*)OCc1ccccc1; PhAc = O=C(Cc1ccccc1)*; ODecyl = CCCCCCCCCCO*; X1 = CCCCCCCCCCCCCCO*; X4 = CCN(CC)C(=O)CO*; Bz = O=C(c1ccccc1)*; OBn = c1ccc(CO*)cc1; X5 = CCCCCCCCCCCCO*; Ahx = NCCCCCC(=O)O; X6 = O=C(O)CO*
Target: VLA-4 (Homo sapiens, UniProt P05556+P13612)
Experiment: In vitro binding assay: 51Cr-labeled Jurkat cells to solid phase-bound CS-1 compound (SEQ ID NO:1)
Format: cell-based
Parameters: inflammatory cells that contain the VLA-4 receptor [Jurkat cells; host or cells: Jurkat cells (human T lymphoblastic line)
Settings: for Relative Potency (prodrug compound): before the prodrug compound is enzymatically converted to an active form, relative to SEQ ID NO:3 = 1
Description: Binding inhibition is measured here as a concentration of compound that inhibits one-half the binding between a standard number of Jurkat cells and a standard amount of CS-1 compound bound to the surface of a microtiter plate well. Those concentrations are conveniently expressed as IC50 values, smaller numbers indicating a lower concentration required to inhibit 50 percent binding and therefore greater potency. Further specifics of this assay are provided hereinafter.
Jurkat cells (ATCC TIB 152), a human T lymphoblastic line, labeled with ^51 chromium were used to assay in vitro binding inhibition provided by various compounds discussed herein.
The plates were prepared as follows: The 25-mer CS-1 compound (SEQ ID NO:1) dissolved at 0.5-1 μg/ml in a buffer of 0.1M NaHCO3 at pH 9.5 that also contained 10 μg/ml of bovine serum albumin (BSA) or a conjugate of the CS-1 compound linked to ovalbumin (CS-1-OVA) dissolved at 1-2.5 μg/ml in the same buffer was used as the substrate. Each well of the microtiter plates was coated with 50 μl of substrate or buffer alone for controls. The wells were permitted to dry out completely and were then rinsed twice with PBS at pH 7.4. Non-specific binding sites of each well were then blocked using 200 μl per well of RPMI/1 percent BSA for two hours at room temperature.
Jurkat cells (3-5×10^6 cells) were placed into a 15 ml Falcon™ round-bottom tube with a cap. The tube was centrifuged, and the extra medium was then removed.
Two hundred microliters of a ^51 Cr labeling solution were added to the centrifuged cells and maintained in contact with the cells for 90-120 minutes in a warm room. […] Longer contact times provide a greater amount of labeling but lower cell viability.
The labeled cells are washed with (i) complete medium, (ii) 1 mM EDTA/PBS and then (iii) RPM1/1 percent BSA free of serum components. The cells are centrifuged after each washing. The cells are finally resuspended in serum-free RPMI/1 percent BSA at a concentration of 1×10^6 viable cells/ml, which provides a concentration that is diluted by one-half in the assay.
Inhibitor compounds are prepared as stock solutions at 20 mg/ml in DMSO in 1.5 ml cryogenic screwcap vials, and were stored at -70° C. Using Flow™ round-bottom or V-bottom microtiter plates, the inhibitor compounds were prepared at twice the assay concentration in RPMI/1 percent BSA at 60 μl/well.
Four initial dilutions were typically used.
The ^51 Cr-labeled cells ([…] at 60 μl/well) were then admixed with the diluted compound solutions. The admixtures were maintained at room temperature (about 22° C.) for 30 minutes.
One hundred microliters of each inhibitor compound/cell admixture were transferred to the substrate-coated wells. This was done in triplicate for each dilution. The resulting plates were incubated for 30 minutes at 37° C. and then washed gently three times with RPMI/1 percent BSA at 200 μl/well. Binding was observed microscopically, particularly after the second wash.
The bound cells were then lysed by the addition of a 0.5 percent solution of sodium dodecylsulfate in water at 100 μl/well. The resulting solutions were then processed for counting and calculation of IC50 values following usual procedures.
The data of Table 1 are normalized to the binding of SEQ ID NO: 3. […] Multiple assays for the same compound were averaged.

[1] = binding inhibition potency (IC50) relative to standard compound of SEQ ID NO:3 = 1, about one-tenth or less assigned zero

Sequence of VLA-4 (P13612 34-1032): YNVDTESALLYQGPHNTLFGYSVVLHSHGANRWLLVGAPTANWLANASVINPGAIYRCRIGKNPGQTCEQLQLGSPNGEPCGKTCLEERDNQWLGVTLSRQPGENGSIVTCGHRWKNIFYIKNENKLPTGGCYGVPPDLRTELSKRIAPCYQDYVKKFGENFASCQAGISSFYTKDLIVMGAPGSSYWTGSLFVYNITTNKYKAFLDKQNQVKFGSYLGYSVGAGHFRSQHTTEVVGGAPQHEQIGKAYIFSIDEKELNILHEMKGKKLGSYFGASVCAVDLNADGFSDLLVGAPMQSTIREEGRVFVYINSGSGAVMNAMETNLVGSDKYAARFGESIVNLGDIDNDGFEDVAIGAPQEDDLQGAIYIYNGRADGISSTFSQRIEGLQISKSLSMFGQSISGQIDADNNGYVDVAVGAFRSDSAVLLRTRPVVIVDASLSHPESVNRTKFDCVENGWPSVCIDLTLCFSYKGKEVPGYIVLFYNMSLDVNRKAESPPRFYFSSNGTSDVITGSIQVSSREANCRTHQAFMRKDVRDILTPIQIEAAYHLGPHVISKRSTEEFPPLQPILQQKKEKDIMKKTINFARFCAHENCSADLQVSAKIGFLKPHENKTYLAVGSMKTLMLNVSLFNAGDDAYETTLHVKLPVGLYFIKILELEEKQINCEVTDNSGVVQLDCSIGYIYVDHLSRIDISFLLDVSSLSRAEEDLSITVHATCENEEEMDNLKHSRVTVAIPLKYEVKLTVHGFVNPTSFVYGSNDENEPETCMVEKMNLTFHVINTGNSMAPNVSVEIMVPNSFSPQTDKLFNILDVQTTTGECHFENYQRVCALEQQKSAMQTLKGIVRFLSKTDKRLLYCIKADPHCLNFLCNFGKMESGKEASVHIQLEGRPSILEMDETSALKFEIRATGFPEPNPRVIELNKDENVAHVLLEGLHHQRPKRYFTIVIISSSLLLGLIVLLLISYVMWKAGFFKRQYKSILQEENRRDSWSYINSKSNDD
Sequence of VLA-4 (P05556 21-798): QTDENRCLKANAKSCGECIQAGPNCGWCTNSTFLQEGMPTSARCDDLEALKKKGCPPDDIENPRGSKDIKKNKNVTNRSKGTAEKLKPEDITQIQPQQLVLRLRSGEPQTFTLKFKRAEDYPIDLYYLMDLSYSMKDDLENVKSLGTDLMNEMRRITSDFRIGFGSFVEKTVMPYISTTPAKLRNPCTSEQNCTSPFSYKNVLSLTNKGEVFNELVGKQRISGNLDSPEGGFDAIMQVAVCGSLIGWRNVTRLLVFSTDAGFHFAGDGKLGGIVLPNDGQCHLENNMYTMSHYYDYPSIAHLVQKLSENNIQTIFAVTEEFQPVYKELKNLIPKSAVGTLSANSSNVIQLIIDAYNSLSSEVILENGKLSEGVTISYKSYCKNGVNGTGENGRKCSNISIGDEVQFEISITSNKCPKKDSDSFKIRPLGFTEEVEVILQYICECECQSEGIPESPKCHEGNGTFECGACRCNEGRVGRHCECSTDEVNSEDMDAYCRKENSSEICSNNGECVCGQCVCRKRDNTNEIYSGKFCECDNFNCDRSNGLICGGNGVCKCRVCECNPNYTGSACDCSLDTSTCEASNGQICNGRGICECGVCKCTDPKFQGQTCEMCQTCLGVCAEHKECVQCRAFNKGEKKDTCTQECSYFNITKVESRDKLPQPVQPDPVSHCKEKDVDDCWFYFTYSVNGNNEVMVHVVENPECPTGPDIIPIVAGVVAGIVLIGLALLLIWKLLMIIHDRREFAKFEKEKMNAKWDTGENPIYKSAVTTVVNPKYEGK

CC(C)C[C@H](NC(=O)c1ccccc1)C(=O)N[C@@H](CC(=O)O)C(=O)N[C@H](C(=O)N1CCC[C@H]1C(N)=O)C(C)C [896.35]
Relative Potency [1]: 16

CC(C)C[C@H](NC(=O)Cc1ccccc1)C(=O)N[C@@H](CC(=O)O)C(=O)N[C@@H](CCc1ccccc1)C(=O)N1CCC[C@@H]1C(N)=O [1062.03] (PhAc-LD[hPhe][dP]-NH2)
Relative Potency [1]: 93.93

CC(C)CN(CC(=O)Nc1ccccc1)C(=O)CN(CC(=O)O)C(=O)CN(Cc1ccccc1)C(=O)C1CCCC1 [1032.02]
Relative Potency [1]: .63

CCCCCCCCCC(=O)OC1CCN(C(=O)[C@H](Cc2ccccc2)NC(=O)[C@H](CC(=O)O)NC(=O)[C@H](CC(C)C)NC(=O)Cc2ccccc2)CC1 [1068.06]
Relative Potency (prodrug compound): .63

CC(C)C[C@H](NC(=O)c1ccccc1)C(=O)N[C@@H](CC(=O)O)C(=O)N[C@H](C(=O)N1CCC[C@@H]1C(N)=O)C(C)C [926.02]
Relative Potency [1]: 9.6

CC(C)C[C@H](NC(=O)Cc1ccccc1)C(=O)N[C@@H](CS(N)(=O)=O)C(=O)N[C@@H](Cc1ccccc1)C(=O)N1CCCCC1 [1026.08]
Relative Potency [1]: 0

CC(C)[C@@H]1CC[C@@H](C)C[C@H]1OCC(=O)N[C@@H](CC(=O)O)C(=O)N[C@@H](Cc1ccccc1)C(=O)N1CCC[C@@H]1C(N)=O [1056.06]
Relative Potency: 0

CCN(CC)C(=O)COC(=O)C[C@H](NC(=O)[C@H](CC(C)C)NC(=O)Cc1ccccc1)C(=O)N[C@@H](Cc1ccccc1)C(=O)N1CCC[C@@H]1C(N)=O [1068.13] (PhAc-LD(X4)F[dP]-NH2)
Relative Potency (prodrug compound): 0

CCCCCCCCCCCCCCCCCCOC(=O)C[C@H](NC(=O)[C@H](CC(C)C)NC(=O)Cc1ccccc1)C(=O)N[C@@H](Cc1ccccc1)C(=O)N1CCC[C@@H]1C(N)=O [1068.12] (PhAc-LD(X8)F[dP]-NH2)
Relative Potency (prodrug compound): 0

CC(C)C[C@H](NC(=O)Cc1ccccc1)C(=O)N[C@@H](CC(=O)O)C(=O)N1C(=O)N(Cc2ccccc2)C(=O)[C@@H]1Cc1ccccc1 [1047.08]
Relative Potency [1]: .38

CCCCCCCCCCOC(=O)C[C@H](NC(=O)[C@H](CC(C)C)NC(=O)Cc1ccccc1)C(=O)N[C@@H](Cc1ccccc1)C(=O)N1CCC[C@@H]1C(N)=O [1068.09] (PhAc-LD(ODecyl)F[dP]-NH2)
Relative Potency (prodrug compound): 0

CC(C)C[C@H](NC(=O)Cc1ccccc1)C(=O)N[C@@H](CC(=O)O)C(=O)N[C@@H](Cc1ccccc1)C(=O)N1CCN(CCOCCO)CC1 [1111.07]
Relative Potency [1]: 510

CCCCCCCCCCCCCCOC(=O)C[C@H](NC(=O)[C@H](CC(C)C)NC(=O)Cc1ccccc1)C(=O)N[C@@H](Cc1ccccc1)C(=O)N1CCC[C@@H]1C(N)=O [1068.11] (PhAc-LD(X1)F[dP]-NH2)
Relative Potency (prodrug compound): 0

NC(=O)[C@H]1CCCN1C(=O)[C@H](Cc1ccccc1)NC(=O)[C@H](CC(=O)O)NC(=O)[C@H](CC1CCCCC1)NC(=O)c1ccccc1 [896.31] (Bz-[Cha]DF[dP]-NH2)
Relative Potency [1]: 11

CC(C)C[C@H](NC(=O)Cc1ccccc1)C(=O)N[C@@H](CP(=O)(O)O)C(=O)N[C@@H](Cc1ccccc1)C(=O)N1CCCCC1 [1026.07]
Relative Potency [1]: 0

CCCCCCCCCCCCCCCCCCNC(=O)CCCCCNC(=O)[C@@H]1CCCN1C(=O)[C@H](Cc1ccccc1)NC(=O)[C@H](CC(=O)O)NC(=O)[C@H](CC(C)C)NC(=O)Cc1ccccc1 [1068.01, phenylacetyl-Leu-Asp-Phe-Pro-NH(CH2)5 C (O)NHC18 H37] (PhAc-LDFP[Ahx]-NHOctadecyl)
Relative Potency (prodrug compound): .91

CC(C)C[C@H](NC(=O)Cc1ccccc1)C(=O)NC(C(=O)O)C(=O)N[C@@H](Cc1ccccc1)C(=O)N1CCCCC1 (some centres unmarked) [1026.02]
Relative Potency [1]: 0

CC(C)C[C@H](NC(=O)Cc1ccccc1)C(=O)N[C@@H](CS)C(=O)N[C@@H](Cc1ccccc1)C(=O)N1CCC[C@@H]1C(N)=O [896.59] (PhAc-LCF[dP]-NH2)
Relative Potency [1]: 0

CC(C)C[C@H](NC(=O)Cc1ccccc1)C(=O)N[C@@H](CC(=O)O)C(=O)N[C@@H](Cc1ccccc1)C(N)=O [997.12] (PhAc-Leu-Asp-Phe-NH2)
Relative Potency [1]: .45

CC(C)C[C@@H](CN[C@@H](CC(=O)O)C(=O)N[C@@H](Cc1ccccc1)C(=O)N1CCCCC1)NC(=O)Cc1ccccc1 [1041.01]
Relative Potency [1]: 0

CCCCCCCCCCCCOC(=O)C[C@H](NC(=O)[C@H](CC(C)C)NC(=O)Cc1ccccc1)C(=O)N[C@@H](Cc1ccccc1)C(=O)N1CCC[C@@H]1C(N)=O [1068.10] (PhAc-LD(X5)F[dP]-NH2)
Relative Potency (prodrug compound): 0

O=C(O)C[C@H](NC1CCN(C(=O)Cc2ccccc2)CC1)C(=O)N[C@@H](Cc1ccccc1)C(=O)N1CCCC1 [992.01]
Relative Potency [1]: 0

CC(C)C[C@H](NC(=O)Cc1ccccc1)C(=O)N[C@@H](CC(=O)OCc1ccccc1)C(=O)N[C@@H](Cc1ccccc1)C(=O)N1CCC[C@@H]1C(N)=O [1068.07] (PhAc-LD(OBn)F[dP]-NH2)
Relative Potency (prodrug compound): 0

NC(=O)[C@H]1CCCN1C(=O)[C@H](Cc1ccccc1)NC(=O)[C@H](CC(=O)O)NC(=O)CCCCC1CCSS1 (some centres unmarked) [1056.09]
Relative Potency [1]: 1.1

CC(C)C[C@H](NC(=O)Cc1ccccc1)C(=O)N[C@@H](CC(=O)O)C(=O)N(C)[C@@H](Cc1ccccc1)C(=O)N1CCC[C@@H]1C(N)=O [1190.05] (PhAc-LD[NMeF][dP]-NH2)
Relative Potency [1]: 0

CCOC(=O)C[C@H](NC(=O)[C@H](CC(C)C)NC(=O)Cc1ccccc1)C(=O)N[C@@H](Cc1ccccc1)C(=O)N1CCC[C@@H]1C(N)=O [1190.01] (PhAc-LD(OEt)F[dP]-NH2)
Relative Potency (prodrug compound): 0

CC(C)C[C@H](NC(=O)Cc1ccccc1)C(=O)N[C@@H](CC(=O)OCC(=O)O)C(=O)N[C@@H](Cc1ccccc1)C(=O)N1CCC[C@@H]1C(N)=O [1067.02] (PhAc-LD(X6)F[dP]-NH2)
Relative Potency (prodrug compound): .81

CC(C)C[C@H](NC(=O)Cc1ccccc1)C(=O)N[C@@H](CC(=O)O)C(=O)N[C@@H](Cc1ccccc1)C(=O)NCCCO [1051.05]
Relative Potency [1]: 25

CC(C)C[C@H](NC(=O)Cc1ccccc1)C(=O)N[C@@H](CC(=O)O)C(=O)NC1Cc2ccccc2N(CCN2CCOCC2)C1=O (some centres unmarked) [997.18]
Relative Potency [1]: 20

CC(C)C[C@H](NC(=O)Cc1ccccc1)C(=O)N[C@@H](CC(=O)O)C(=O)NC1CCCCN(CC(N)=O)C1=O (some centres unmarked) [1057.06]
Relative Potency [1]: 97

CC(C)C[C@H](NC(=O)Cc1ccccc1)C(=O)NC(CC(=O)O)(CC(=O)O)C(=O)N[C@@H](Cc1ccccc1)C(=O)N1CCCCC1 [1026.01]
Relative Potency [1]: 0

CC(C)C[C@H](NC(=O)Cc1ccccc1)C(=O)N(C)[C@@H](CC(=O)O)C(=O)N[C@@H](Cc1ccccc1)C(=O)N1CCC[C@@H]1C(N)=O [1190.06] (PhAc-L[NMeD]F[dP]-NH2)
Relative Potency [1]: 0

CC(C)C[C@H](NC(=O)Cc1ccccc1)C(=O)N[C@@H](CC(=O)O)C(=O)N1C(=O)N(Cc2ccccc2)C(=O)[C@H]1Cc1ccccc1 [1047.07]
Relative Potency [1]: .38

CCCCCCCCCCCCCCCCCC(=O)OC1CCN(C(=O)[C@H](Cc2ccccc2)NC(=O)[C@H](CC(=O)O)NC(=O)[C@H](CC(C)C)NC(=O)Cc2ccccc2)CC1 [1068.05]
Relative Potency (prodrug compound): 0.63

CC(C)C[C@H](NC(=O)Cc1ccccc1)C(=O)N[C@@H](CC(=O)OCC(=O)OCc1ccccc1)C(=O)N[C@@H](Cc1ccccc1)C(=O)N1CCC[C@@H]1C(N)=O [1067.01] (PhAc-LD(X7)F[dP]-NH2)
Relative Potency (prodrug compound): .97

CC(C)C[C@H](NC(=O)Cc1ccccc1)C(=O)N[C@@H](CC(=O)O)C(=O)N[C@H](C(=O)N1CCC[C@@H]1C(N)=O)c1ccccc1 [896.69] (PhAc-LD[Phg][dP]-NH2)
Relative Potency [1]: 61

CC(C)C[C@H](NC(=O)Cc1ccccc1)C(=O)N[C@@H](CS(=O)(=O)O)C(=O)N[C@@H](Cc1ccccc1)C(=O)N1CCCCC1 [1026.06] (PhAc-Leu-[Cya]-Phe-Piperidide)
Relative Potency [1]: 0

O=C(O)CC(C(=O)N[C@@H](Cc1ccccc1)C(=O)N1CCCCC1)N1CC[C@H](NC(=O)Cc2ccccc2)C1=O (some centres unmarked) [1057.01]
Relative Potency [1]: .88

Source: US5821231A, “CS-1 peptidomimetics, compositions and methods of using same” (Cytel Corporation, priority 1995, dated 1998)
